# Measured values published in publication PMC9574929, “Development of Hydrogen Sulfide-Releasing Carbonic Anhydrases IX- and XII-Selective Inhibitors with Enhanced Antihyperalgesic Action in a Rat Model of Arthritis” (Journal of Medicinal Chemistry, 2022).
# Entries after “also recorded” stand apart in the source; their conditions may differ.
# Assays:
# [1] = biological target: hCA IX (Homo sapiens, UniProt Q16790); assay: Stopped-flow CO2 hydrase assay, hCA IX; conditions: selectivity index, ratio of KIs
# [2] = test system: rats; assay: Toxicity and Irwin test; type: in vivo, rat; set-up: key to Irwin test: Spontaneous activity / Irwin test: Straightening reflex / Irwin test: Hypo-hyperthermia / Irwin test: Cleaning / Irwin test: Curiosity / Irwin test: Reactivity / Irwin test: Convulsions: observer's semiquantitative score (0 to +4, −4 to 0, or −4 to +4); conditions: 30 mg/kg; for Irwin test: Cyanosis / Irwin test: Exolphthalmos / Irwin test: Flush / Irwin test: Lacrimation / Irwin test: Pallor / Irwin test: Piloerection / Irwin test: Salivation / Irwin test: Writhing / Irwin test: Palpebral opening / Irwin test: Hypo-hyperthermia: Autonomic signes; for Irwin test: Cyanosis / Irwin test: Exolphthalmos / Irwin test: Flush / Irwin test: Lacrimation / Irwin test: Pallor / Irwin test: Piloerection / Irwin test: Salivation / Irwin test: Writhing / Irwin test: Passivity / Irwin test: Vocalization / Irwin test: Ataxia / Irwin test: Stereotipies / Irwin test: Straub tail / Irwin test: Tremors / Irwin test: Delayed death (48 h) / Irwin test: Immediate death: limits 0 - 4; for Irwin test: Palpebral opening / Irwin test: Cleaning / Irwin test: Curiosity / Irwin test: Reactivity / Irwin test: Spontaneous activity / Irwin test: Straightening reflex / Irwin test: Palpebral reflex / Irwin test: Convulsions: limits 4 - 0; for Irwin test: Hypo-hyperthermia: limits -4/+4; for Irwin test: Passivity / Irwin test: Vocalization / Irwin test: Cleaning / Irwin test: Curiosity / Irwin test: Reactivity / Irwin test: Spontaneous activity: Behaviour; for Irwin test: Ataxia / Irwin test: Stereotipies / Irwin test: Straightening reflex: Movement; for Irwin test: Physical strenght: Muscolar tone, limits 4 – 0; for Irwin test: Palpebral reflex: Reflexes; for Irwin test: Straub tail / Irwin test: Tremors / Irwin test: Convulsions: S.N.C. excitement; for Irwin test: Delayed death (48 h) / Irwin test: Immediate death: Toxicity
# Method: Toxicity was evaluated after a single acute administration of 26, 29, 30, and 31 at 30 mg/kg. […] For the Irwin test, each rat was individually placed in a transparent cage (26 × 41 cm), and 26 neurobehavioral or physiological parameters were systematically assessed according to Irwin (1968)[55] and already reported by Berrino and colleagues in similar studies.[30] Behavioral, autonomic, and neurological manifestations produced by compound administration in rats were evaluated: motor displacement, motor reflexes, stereotypies, grooming, reaction to painful or environmental stimuli (analgesia and irritability), startle response, secretions, excretions, respiratory movements, skin color and temperature, piloerection, exophthalmos, eyelid and corneal reflexes, muscle tone, ataxia, tremors, head twitches, jumps, convulsions, Straub tail, and other signs or symptoms. For postural reflexes (righting reflex) and other signs such as piloerection, exophthalmia (exaggerated protrusion of the eyeball), ataxia, tremors, and Straub tail, only presence or absence was recorded. Skin color was evaluated qualitatively (pale, red, or purple); other signs were evaluated semiquantitatively, according to the observer’s personal scale (0 to +4, −4 to 0, or −4 to +4). The terms sedation and excitation express the final interpretation of a group of signs: reduced motor activity, reduced startle response, eyelid ptosis, and reduced response to manual manipulation, for the former; and increased motor activity, increased startle response, increased response to manual manipulation, and exophthalmia, for the latter. Hyperactivity includes running, jumping, and attempting to escape from the container. Trained observers were not informed about the specific treatment of each animal group carried out in this test.
# [3] = test system: rat model of arthritis induced by the intra-articular injection of complete Freund's adjuvant (CFA); assay: Paw pressure test, CFA-induced arthritis; type: in vivo
# Method: (§1) Articular damage was induced by injection of Complete Freund’s Adjuvant (CFA; Sigma-Aldrich, St Louis, MO, USA), containing 1 mg/mL of heat-killed and dried Mycobacterium tuberculosis in paraffin oil and mannide monooleate, into the tibiotarsal joint.[50] Briefly, the rats were lightly anesthetized with 2% isoflurane, the left leg skin was sterilized with 75% ethyl alcohol, and the lateral malleolus was located by palpation. A 28-gauge needle was then inserted vertically to penetrate the skin and turned distally for insertion into the articular cavity at the gap between the tibiofibular and tarsal bone until a distinct loss of resistance was felt. A volume of 50 μL of CFA was then injected (day 0). Control rats received 50 μL of saline solution (day 0) in the tibiotarsal joint.
# (§2) The hybrid derivatives 26, 29, 30, and 31 (1, 10, and 30 mg/kg) were suspended in a 1% solution of carboxymethylcellulose (CMC) sodium salt and acutely per os administered starting from day 14 after CFA i.a. injection, when arthritis was well established. The H2S releaser 3 and CAI 15 were also administered alone or in coadministration at the equimolar dose of compound 30 30 mg/kg (13.23 and 17.71 mg/kg, respectively). The antihypersensitivity effects were evaluated over time by the Paw pressure and Incapacitance tests.
# The nociceptive threshold of rats was determined with an analgesimeter (Ugo Basile, Varese, Italy), according to the method described by Leighton et al.[51] and Maresca et al.,[52] (doi: 10.1111/jphp.12828). Briefly, a constantly increasing pressure was applied to a small area of the dorsal surface of the hind paw using a blunt conical probe by a mechanical device. Mechanical pressure was increased until vocalization or a withdrawal reflex occurred while rats were lightly restrained. Vocalization or withdrawal reflex thresholds were expressed in grams. […]
# [4] = biological target: hCA IV (Homo sapiens, UniProt P22748); assay: Stopped-flow CO2 hydrase assay, hCA IV; conditions: selectivity index, ratio of KIs
# hCA IV, sequence (P22748 19-312): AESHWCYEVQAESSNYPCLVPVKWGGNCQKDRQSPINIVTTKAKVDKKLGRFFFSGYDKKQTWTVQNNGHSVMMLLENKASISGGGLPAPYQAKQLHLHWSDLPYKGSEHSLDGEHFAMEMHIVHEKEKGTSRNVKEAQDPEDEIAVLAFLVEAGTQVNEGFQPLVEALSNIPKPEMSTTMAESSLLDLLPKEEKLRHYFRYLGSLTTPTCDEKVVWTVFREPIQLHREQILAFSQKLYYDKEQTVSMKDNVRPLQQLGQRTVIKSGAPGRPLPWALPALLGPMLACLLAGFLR
# Method: (§3) The uncatalyzed rates were determined in the same manner and subtracted from the total observed rates. Stock solutions of inhibitor (0.1 mM) were prepared in distilled-deionized water and dilutions up to 0.01 nM were done thereafter with the assay buffer. […] The inhibition constants were obtained by nonlinear least-squares methods using PRISM 3 and the Cheng–Prusoff equation, as reported earlier,[39] and represent the mean from at least three different determinations.
# [5] = biological target: hCA XII (Homo sapiens, UniProt O43570); assay: Stopped-flow CO2 hydrase assay, hCA XII; conditions: selectivity index, ratio of KIs
# hCA XII, sequence (O43570 25-354): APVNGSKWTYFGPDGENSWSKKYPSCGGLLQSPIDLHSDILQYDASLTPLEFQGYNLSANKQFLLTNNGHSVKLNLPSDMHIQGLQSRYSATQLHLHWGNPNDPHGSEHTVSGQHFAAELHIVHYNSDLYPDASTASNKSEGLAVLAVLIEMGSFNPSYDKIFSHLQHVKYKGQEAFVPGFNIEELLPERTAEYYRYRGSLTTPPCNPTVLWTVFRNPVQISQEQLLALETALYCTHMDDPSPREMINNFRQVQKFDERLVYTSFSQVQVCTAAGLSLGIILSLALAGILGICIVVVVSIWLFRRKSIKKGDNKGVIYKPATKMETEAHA
# [6] = test system: rat model of arthritis induced by the intra-articular injection of complete Freund's adjuvant (CFA); assay: Incapacitance test, CFA-induced arthritis; type: in vivo; conditions: for reduction of spontaneous pain, Incapacitance test: single per os, 1 to 30 mg/kg, day 14 after CFA
# Method: as §1, §2
# Weight-bearing changes were measured using an incapacitance apparatus (Linton Instrumentation, Norfolk, U.K.) to detect changes in postural equilibrium after a hind limb injury.[53],[54] Rats were trained to stand on their hind paws in a box with an inclined plane (65° from horizontal). This box was placed above the incapacitance apparatus. This allowed us to independently measure the weight that the animal applied on each hind limb. The value reported for each animal is the mean of five consecutive measurements. In the absence of hind limb injury, rats applied an equal weight on both hind limbs, indicating postural equilibrium, whereas an unequal distribution of weight on the hind limbs indicated a monolateral decreased pain threshold. Data are expressed as the difference between the weight applied to the limb contralateral to the injury and the weight applied to the ipsilateral limb (Δ weight).
# [7] = biological target: hCA I (Homo sapiens, UniProt P00915); assay: Stopped-flow CO2 hydrase assay, hCA I
# hCA I, sequence (P00915 whole entry): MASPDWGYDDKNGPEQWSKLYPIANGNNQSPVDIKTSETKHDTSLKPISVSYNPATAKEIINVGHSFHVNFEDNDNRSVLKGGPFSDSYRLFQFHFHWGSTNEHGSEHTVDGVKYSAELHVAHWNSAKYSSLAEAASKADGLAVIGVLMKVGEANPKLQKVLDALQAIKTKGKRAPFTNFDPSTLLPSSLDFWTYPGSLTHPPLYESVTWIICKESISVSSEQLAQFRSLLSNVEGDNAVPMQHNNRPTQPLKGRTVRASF
# Method: as §3
SMILES,SI CA I/IX [1],SI CA II/IX [1],Irwin test: Cyanosis [2],Irwin test: Exolphthalmos [2],Irwin test: Flush [2],Irwin test: Lacrimation [2],Irwin test: Pallor [2],Irwin test: Piloerection [2],Irwin test: Salivation [2],Irwin test: Writhing [2],Irwin test: Palpebral opening [2],Irwin test: Hypo-hyperthermia [2],Irwin test: Passivity [2],Irwin test: Vocalization [2],Irwin test: Cleaning [2],Irwin test: Curiosity [2],SI CA I/IV [4],SI CA II/IV [4],SI CA I/XII [5],SI CA II/XII [5],further results
"CSc1ccc(CN(CCc2ccc(S(N)(=O)=O)cc2)C(=O)c2ccc(-c3cssc3=S)cc2)cc1 [Compound 29, N-(4-(Methylthio)benzyl)-N-(4-sulfamoylphenethyl)-4-(3-thioxo-3H-1,2-dithiol-4-yl)benzamide]",156,209,0,0,0,0,0,0,0,0,4,0,0,0,0,4,17.9,23.9,858,1148,"Irwin test: Reactivity [2]: 4; Irwin test: Spontaneous activity [2]: 4; Irwin test: Ataxia [2]: 0; Irwin test: Stereotipies [2]: 0; Irwin test: Straightening reflex [2]: 4; Irwin test: Physical strenght [2]: 4; Irwin test: Palpebral reflex [2]: 4; Irwin test: Straub tail [2]: 0; Irwin test: Tremors [2]: 0; Irwin test: Convulsions [2]: 0; Irwin test: Delayed death (48 h) [2]: 0; Irwin test: Immediate death [2]: 0; antihyperalgesic effect, Paw pressure test, 1 mg/kg ([3]; 1 mg/kg per os): ineffective; weight tolerated on the ipsilateral paw, Paw pressure test, 10 and 30 mg/kg ([3]; 10 and 30 mg/kg per os, from 15 min up to 45 min after treatment, vs CFA-treated animals): significantly increased the weight tolerated; reduction of spontaneous pain, Incapacitance test [6]: reduced spontaneous pain in a dose-dependent manner"
"COc1cc([N+](=O)[O-])ccc1CN(CCc1ccc(S(N)(=O)=O)cc1)C(=O)c1ccc(-c2cssc2=S)cc1 [Compound 26, N-(2-Methoxy-4-nitrobenzyl)-N-(4-sulfamoylphenethyl)-4-(3-thioxo-3H-1,2-dithiol-4-yl)benzamide]",1633,719,0,0,0,0,0,0,0,0,4,0,0,0,0,4,1.6,0.7,870,383,"Irwin test: Reactivity [2]: 4; Irwin test: Spontaneous activity [2]: 4; Irwin test: Ataxia [2]: 0; Irwin test: Stereotipies [2]: 0; Irwin test: Straightening reflex [2]: 4; Irwin test: Physical strenght [2]: 4; Irwin test: Palpebral reflex [2]: 4; Irwin test: Straub tail [2]: 0; Irwin test: Tremors [2]: 0; Irwin test: Convulsions [2]: 0; Irwin test: Delayed death (48 h) [2]: 0; Irwin test: Immediate death [2]: 0; antihyperalgesic effect, Paw pressure test, 30 mg/kg ([3]; 30 mg/kg per os, day 14 after CFA): completely reverted the pain state 45 min after administration; also recorded: counteracted the mechanical hyperalgesia 45 min after injection; also recorded: completely reverting pain 45 min after treatment; antihypersensitivity effect, Paw pressure test ([3]; single per os, 1 to 30 mg/kg, day 14 after CFA): evoked an antihypersensitivity effect in a dose-dependent manner; antihyperalgesic action at 45 min, Incapacitance test ([6]; per os, 45 min after treatment): almost completely reverting spontaneous pain after 45 min; also recorded: completely reverting pain 45 min after treatment; reduction of spontaneous pain, Incapacitance test [6]: reduced spontaneous pain in a dose-dependent manner"
"NS(=O)(=O)c1ccc(CCN(Cc2ccccc2)C(=O)c2ccc(-c3cssc3=S)cc2)cc1 [Compound 19, N-Benzyl-N-(4-sulfamoylphenethyl)-4-(3-thioxo-3H-1,2-dithiol-4-yl)benzamide]",19.2,11.1,–,–,–,–,–,–,–,–,–,–,–,–,–,–,0.18,0.11,79.4,49.5,Ki [7]: 771 to 890 nM; melting point: 139 to 140 °C
